System: 317291-083-R-J1-PDC complex spheroids, viability
Experiment: Anticancer human tumor 317291-083-R-J1-PDC patient-derived soft tissue sarcoma cell line growth inhibition [GQUAD]
Conditions: for IC50: curve of first compound; for viability, T/C: stronger effect = lower value
How it was run: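 Tumor cells were grown as complex spheroids with HUVEC endothelial cells and mesenchymal stem cells as stroma. G-quadruplex stabilizers were combined with targeted agents over half-log dilutions from near the clinical Cmax, or from 10 microM.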

[1] = second compound 0.0316 µM, first compound 0.0316 µM
[2] = second compound 0.0316 µM, first compound 0.1 µM
[3] = second compound 0.0316 µM, first compound 0.316 µM
[4] = second compound 0.0316 µM, first compound 1 µM
[5] = second compound 0.0316 µM, first compound 3.16 µM
[6] = second compound 0.0316 µM, first compound 10 µM
[7] = second compound 0.1 µM, first compound 0.0316 µM
[8] = second compound 0.1 µM, first compound 0.1 µM
[9] = second compound 0.1 µM, first compound 0.316 µM
[10] = second compound 0.1 µM, first compound 1 µM
[11] = second compound 0.1 µM, first compound 3.16 µM
[12] = second compound 0.1 µM, first compound 10 µM
[13] = second compound 0.316 µM, first compound 0.0316 µM
[14] = second compound 0.316 µM, first compound 0.1 µM
[15] = second compound 0.316 µM, first compound 0.316 µM
[16] = second compound 0.316 µM, first compound 1 µM
[17] = second compound 0.316 µM, first compound 3.16 µM
[18] = second compound 0.316 µM, first compound 10 µM
[19] = second compound 1 µM, first compound 0.0316 µM
[20] = second compound 1 µM, first compound 0.1 µM
[21] = second compound 1 µM, first compound 0.316 µM
[22] = second compound 1 µM, first compound 1 µM
[23] = second compound 1 µM, first compound 3.16 µM
[24] = second compound 1 µM, first compound 10 µM
[25] = second compound 3.16 µM, first compound 0.0316 µM
[26] = second compound 3.16 µM, first compound 0.1 µM
[27] = second compound 3.16 µM, first compound 0.316 µM
[28] = second compound 3.16 µM, first compound 1 µM
[29] = second compound 3.16 µM, first compound 3.16 µM
[30] = second compound 3.16 µM, first compound 10 µM
[31] = second compound 10 µM, first compound 0.0316 µM
[32] = second compound 10 µM, first compound 0.1 µM
[33] = second compound 10 µM, first compound 0.316 µM
[34] = second compound 10 µM, first compound 1 µM
[35] = second compound 10 µM, first compound 3.16 µM
[36] = second compound 10 µM, first compound 10 µM
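Note: spheroids exposed to compounds for one week before readout.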
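Throughout, for viability, T/C: percent viability relative to DMSO vehicle wells taken as 100%.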

`C=CC(=O)N1CCN(c2nc(=O)n(-c3c(C)ccnc3C(C)C)c3nc(-c4c(O)cccc4F)c(F)cc23)C(C)C1` (stereo unspecified) + Cc1cnc(CNC(=O)c2c(=O)c3ccc(N4CCCN(C)CC4)nc3n3c2sc2ccccc23)cn1 was tested, and the IC50 (second compound 0.0316 µM) was > 10 µM, the IC50 (second compound 0.1 µM) was 8.78 µM and the IC50 (second compound 0.316 µM) was 4.43 µM. The IC50 (second compound 1 µM) was 0.153 µM, the IC50 (second compound 3.16 µM) was < 0.0316 µM and the IC50 (second compound 10 µM) was < 0.0316 µM. For the same compound, the viability, T/C [1] was 101%, the viability, T/C [2] was 84.2% and the viability, T/C [3] was 101%. The viability, T/C [4] was 92.8%, the viability, T/C [5] was 86.2% and the viability, T/C [6] was 65%. For the same compound, the viability, T/C [7] was 79.1%, the viability, T/C [8] was 88.6% and the viability, T/C [9] was 91%. For the same compound, the viability, T/C [10] was 95.8%, the viability, T/C [11] was 70.1% and the viability, T/C [12] was 47.5%. For the same compound, the viability, T/C [13] was 65.7%, the viability, T/C [14] was 68.7% and the viability, T/C [15] was 54.4%. It also gave a viability, T/C [16] of 63.7%, a viability, T/C [17] of 46.9% and a viability, T/C [18] of 47.3%. The viability, T/C [19] was 59.1%, the viability, T/C [20] was 61.9% and the viability, T/C [21] was 31.9%. It also gave a viability, T/C [22] of 27.4%, a viability, T/C [23] of 30.9% and a viability, T/C [24] of 14.8%. The viability, T/C [25] was 21.3%, the viability, T/C [26] was 21.2% and the viability, T/C [27] was 41.6%. The viability, T/C [28] was 12.3%, the viability, T/C [29] was 13.8% and the viability, T/C [30] was 14.6%. It also gave a viability, T/C [31] of 22%, a viability, T/C [32] of 63.3% and a viability, T/C [33] of 22.2%. For the same compound, the viability, T/C [34] was 13.2%, the viability, T/C [35] was 35.4% and the viability, T/C [36] was 6.85%.
With `CC(C)n1c(=O)n(C)c2cnc3cc(F)c(-c4ccc(OCCCN5CCCCC5)nc4)cc3c21` + Cc1cnc(CNC(=O)c2c(=O)c3ccc(N4CCCN(C)CC4)nc3n3c2sc2ccccc23)cn1 the IC50 (second compound 0.0316 µM) was 0.858 µM, the IC50 (second compound 0.1 µM) was < 0.0316 µM and the IC50 (second compound 0.316 µM) was < 0.0316 µM. For the same compound, the IC50 (second compound 1 µM) was < 0.0316 µM, the IC50 (second compound 3.16 µM) was < 0.0316 µM and the IC50 (second compound 10 µM) was < 0.0316 µM. The viability, T/C [1] was 57.3%, the viability, T/C [2] was 51.3% and the viability, T/C [3] was 45.1%. It also gave a viability, T/C [4] of 29.2%, a viability, T/C [5] of 73.3% and a viability, T/C [6] of 44.5%. It also gave a viability, T/C [7] of 37.1%, a viability, T/C [8] of 37% and a viability, T/C [9] of 24.6%. It also gave a viability, T/C [10] of 25.9%, a viability, T/C [11] of 23.9% and a viability, T/C [12] of 25.3%. The viability, T/C [13] was 21.2%, the viability, T/C [14] was 25.9% and the viability, T/C [15] was 25.4%. It also gave a viability, T/C [16] of 22.1%, a viability, T/C [17] of 33% and a viability, T/C [18] of 17.5%. It also gave a viability, T/C [19] of 18.2%, a viability, T/C [20] of 22.1% and a viability, T/C [21] of 23.5%. It also gave a viability, T/C [22] of 19.4%, a viability, T/C [23] of 21.9% and a viability, T/C [24] of 21.5%. It also gave a viability, T/C [25] of 11.4%, a viability, T/C [26] of 13.9% and a viability, T/C [27] of 29.8%. The viability, T/C [28] was 10.7%, the viability, T/C [29] was 13.1% and the viability, T/C [30] was 11.4%. It also gave a viability, T/C [31] of 26.2%, a viability, T/C [32] of 16.6% and a viability, T/C [33] of 10.7%. For the same compound, the viability, T/C [34] was 21.9%, the viability, T/C [35] was 25.5% and the viability, T/C [36] was 23.4%.
In the case of `CC1COCCN1c1cc(C2(O)CC3CCC(C2)O3)c2cnn(-c3ccn[nH]3)c2n1` (stereo unspecified) + Cc1cnc(CNC(=O)c2c(=O)c3ccc(N4CCCN(C)CC4)nc3n3c2sc2ccccc23)cn1, the IC50 (second compound 0.0316 µM) is reported as < 0.0316 µM, the IC50 (second compound 0.1 µM) is reported as < 0.0316 µM and the IC50 (second compound 0.316 µM) is reported as < 0.0316 µM. The IC50 (second compound 1 µM) was < 0.0316 µM, the IC50 (second compound 3.16 µM) was < 0.0316 µM and the IC50 (second compound 10 µM) was < 0.0316 µM. It also gave a viability, T/C [1] of 32.1%, a viability, T/C [2] of 22.9% and a viability, T/C [3] of 11.1%. It also gave a viability, T/C [4] of 10.5%, a viability, T/C [5] of 13% and a viability, T/C [6] of 3.33%. It also gave a viability, T/C [7] of 25.9%, a viability, T/C [8] of 22.6% and a viability, T/C [9] of 10.6%. The viability, T/C [10] was 11.6%, the viability, T/C [11] was 28.6% and the viability, T/C [12] was 2.82%. The viability, T/C [13] was 18.4%, the viability, T/C [14] was 16.2% and the viability, T/C [15] was 26.7%. For the same compound, the viability, T/C [16] was 11.9%, the viability, T/C [17] was 11.1% and the viability, T/C [18] was 2.89%. It also gave a viability, T/C [19] of 25.6%, a viability, T/C [20] of 18.5% and a viability, T/C [21] of 12.9%. It also gave a viability, T/C [22] of 12.1%, a viability, T/C [23] of 11.7% and a viability, T/C [24] of 5.12%. It also gave a viability, T/C [25] of 14.8%, a viability, T/C [26] of 14.6% and a viability, T/C [27] of 11.1%. The viability, T/C [28] was 12.7%, the viability, T/C [29] was 15.6% and the viability, T/C [30] was 0.73%. The viability, T/C [31] was 12.7%, the viability, T/C [32] was 9.14% and the viability, T/C [33] was 16.9%. For the same compound, the viability, T/C [34] was 24.7%, the viability, T/C [35] was 12.1% and the viability, T/C [36] was 2.17%.
